Earlier results as cited in patent US20030216337A1, “Composition and imaging methods for pharmacokinetic and pharmacodynamic evaluation of therapeutic delivery system” (priority 2002, published 2003).

In the case of `O=c1[nH]c(=O)n([C@H]2C[C@H](O)[C@@H](CO)O2)cc1I` [IUdR, 5-Iodo-2′-deoxyuridine], the half-life (in humans, unincorporated IUdR / resulting compound) is listed as “less than minutes” and the “catabolism of unincorporated IUdR” value (unincorporated into DNA) is listed as “rapidly catabolized to iodouracil and/or dehalogenated”.
